From patent US4478833A, “Trisubstituted pyrimido[5,4-d]pyrimidines and salts thereof” (Dr. Karl Thomae Gesellschaft mit beschrankter Haftung, priority 1980, dated 1984)
pEC50: −log10 of the molar value. Where two headings read alike, the source gives them in different places.

Key:
[1] = test system: thrombocyte aggregation (platelet-rich plasma of healthy test persons); experiment: Collagen-induced thrombocyte (platelet) aggregation in platelet-rich plasma, method of Born and Cross; assay type: cell-based, human; settings: sodium citrate, 10 minutes incubation at 37° C., read-out: EC50 (50% change in optical density, inhibition of collagen-induced aggregation)
Description: Thrombocyte aggregation was measured according to the method of Born and Cross [J. Physiol. 170, 397 (1964)]in platelet-rich plasma of healthy test persons. To inhibit coagulation, the blood was mixed with sodium citrate in a volume ration of 1:10.
After addition of the aggregation-inducing substance, the rate of decrease in optical density of the platelet suspension is measured photometrically and recorded. The rate of aggregation was determined from the angle of inclination of the density curve. The point on the curve at which there was the greatest translucence served for calculating the optical density.
The quantity of collagen was chosen as small as possible, but sufficient so that an irreversible reaction was obtained. Commercial collagen of Hormonchemie, Munich, was used. Before the collagen was added, the plasma was incubated for 10 minutes with the test substance at 37° C.
An EC50 corresponding to a 50% change in the optical density with respect to aggregation inhibition was calculated graphically from the measurement values obtained.

[2] = Acute toxicity in mice after oral administration; assay type: in vivo; settings: mouse, in vivo, po, dose of 250 mg/kg, observation time 14 days
Description: (§1) The acute toxicity of the test compounds was determined on groups of 6 to 10 mice after oral administration of a dose of 250 mg/kg (observation time: 14 days). For this purpose, the substances were suspended in 2% methyl cellulose, some water was subsequently added and the test substance was administered to the conscious animals by esophageal tube.

mice = experiment: Acute toxicity in mice after oral administration; assay type: in vivo; settings: 250 mg/kg p.o., observation time 14 days
Description: as §1

Row | Structure (SMILES) | pEC50 ([1]; Homo sapiens, 10 min) | LD50 at 336 h [2] [mg/kg] | animals died (out of animals tested) (mice) | pEC50 [1]
1 | CSc1ccc(C(C)Sc2ncnc3c(N4CC[S+]([O-])CC4)nc(NCCO)nc23)cc1 (stereo not drawn) [F, 2-(2-Hydroxyethyl-amino)-8-(α-methyl-4-methylthiobenzylthio)-4-(1-oxido-thiomorpholino)-pyrimido[5,4-d]pyrimidine] | 7.54 | > 250 | 0 out of 6 | –
2 | COCCN(CCO)c1nc(N2CC[S+]([O-])CC2)c2ncnc(OCc3ccccc3)c2n1 [O, 8-Benzyloxy-2-[N-(2-hydroxy-ethyl)-N-(2-methoxy-ethyl)amino]-4-(1-oxido-thiomorpholino)-pyrimido[5,4-d]pyrimidine] | 6.52 | > 250 | 0 out of 6 | –
3 | [O-][S+]1CCN(c2nc(N(CCO)CCO)nc3c(N4CCCCC4)ncnc23)CC1 [L, 2-Diethanolamino-4-(1-oxido-thiomorpholino)-8-piperidino-pyrimido[5,4-d]pyrimidine] | 6.16 | > 250 | 0 out of 10 | –
4 | [O-][S+]1CCN(c2nc(NCCO)nc3c(SCc4ccco4)ncnc23)CC1 [G, 8-Furfurylthio-2-(2-hydroxyethyl-amino)-4-(1-oxidothiomorpholino)-pyrimido[5,4-d]pyrimidine] | 7.28 | > 250 | 0 out of 6 | –
5 | [O-][S+]1CCN(c2nc(NCCO)nc3c(SCc4ccccc4)ncnc23)CC1 [C, 8-Benzylthio-2-(2-hydroxyethyl-amino)-4-(1-oxido-thiomorpholino)-pyrimido[5,4-d]pyrimidine] | 7.68 | > 250 | 0 out of 10 | –
6 | [O-][S+]1CCN(c2nc(NCCO)nc3c(NCc4ccc(Cl)cc4)ncnc23)CC1 [K, 8-(4-Chlorobenzyl-amino)-2-(2-hydroxyethyl-amino)-4-(1-oxido-thiomorpholino)-pyrimido[5,4-d]pyrimidine] | 6.55 | > 250 | 0 out of 10 | –
7 | CC(C)CCOc1ncnc2c(N3CC[S+]([O-])CC3)nc(N(CCO)CCO)nc12 [M, 2-Diethanolamino-8-isopentoxy-4-(1-oxido-thiomorpholino)-pyrimido[5,4-d]pyrimidine] | 6.34 | > 250 | 0 out of 6 | –
8 | COCCN(CCO)c1nc(N2CC[S+]([O-])CC2)c2ncnc(SCc3ccccc3)c2n1 [Compound E, 8-Benzylthio-2-[N-(2-hydroxy-ethyl)-N-(2-methoxyethyl)-amino]-4-(1-oxido-thiomorpholino)-pyrimido[5,4-d]pyrimidine] | 7.28 | > 250 | 0 out of 10 | –
9 | CCCSc1ncnc2c(N3CC[S+]([O-])CC3)nc(NCCO)nc12 [A, 2-(2-Hydroxyethyl-amino)-4-(1-oxido-thiomorpholino)-8-propylthio-pyrimido[5,4-d]pyrimidine] | 6.51 | > 250 | 0 out of 6 | –
10 | [O-][S+]1CCN(c2nc(NCCO)nc3c(SC4CCCCC4)ncnc23)CC1 [B, 8-Cyclohexylthio-2-(2-hydroxyethyl-amino)-4-(1-oxido-thiomorpholino)-pyrimido[5,4-d]pyrimidine] | 7.32 | > 250 | 0 out of 10 | –
11 | [O-][S+]1CCN(c2nc(N(CCO)CCO)nc3c(OCc4ccccc4)ncnc23)CC1 [N, 8-Benzyloxy-2-diethanolamino-4-(1-oxido-thiomorpholino)-pyrimido[5,4-d]pyrimidine] | 6.64 | > 250 | 0 out of 10 | –
12 | [O-][S+]1CCN(c2nc(N(CCO)CCO)nc3c(SCc4ccccc4)ncnc23)CC1 [D, 8-Benzylthio-2-diethanolamino-4-(1-oxido-thiomorpholino)pyrimido[5,4-d]pyrimidine] | 7.21 | > 250 | 0 out of 10 | –
13 | CCCCN(CC)c1ncnc2c(N3CC[S+]([O-])CC3)nc(NCCO)nc12 [H, 8-(N-Ethyl-butylamino)-2-(2-hydroxyethyl-amino)-4-(1-oxidothiomorpholino)-pyrimido[5,4-d]pyrimidine] | 6.52 | > 250 | 0 out of 6 | –
14 | CC(Nc1ncnc2c(N3CC[S+]([O-])CC3)nc(NCCO)nc12)c1ccccc1 [I, 2-(2-Hydroxyethyl-amino)-4-(1-oxido-thiomorpholino)-8-(L-1-phenylethyl-amino)-pyrimido[5,4-d]pyrimidine] | – | – | – | 7.55
15 | [O-][S+]1CCN(c2nc(N(CCO)CCO)nc3c(OCCCc4ccccc4)ncnc23)CC1 [P, 2-Diethanolamino-4-(1-oxido-thiomorpholino)-8-(3-phenylpropoxy)-pyrimido[5,4-d]pyrimidine] | 6.44 | > 250 | 0 out of 6 | –
